# In patent publication US20090054392A1, “NAPHTHYLPYRIMIDINE, NAPHTHYLPYRAZINE AND NAPHTHYLPYRIDAZINE ANALOGS AND THEIR USE AS AGONISTS OF THE WNT-BETA-CATENIN CELLULAR MESSAGING SYSTEM” (Wyeth, priority 2007, published 2009):
# Like-named read-outs stand apart in the source and are kept apart here.
# Test system: Dkk1-LRP5-TCF-Luciferase
# Assay: Functional Dkk1-LRP5-TCF-Luciferase Assay in U2OS Cells
# Conditions: for A = MAX FOLD Induction/DMSO CONTROL: maximum fold induction over DMSO control; for fold induction at 2 µM: read-out: B = TCF ACTIVITY/DMSO CONTROL Fold induction @ 2.0 uM, 2.0 uM compound; for fold induction at 20 µM: read-out: C = TCF ACTIVITY/DMSO CONTROL Fold induction @ 20.0 uM, 20.0 uM compound
A = MAX FOLD Induction/DMSO CONTROL [fold],SMILES,"fold induction at 2 µM (Homo sapiens, U2OS)","fold induction at 20 µM (Homo sapiens, U2OS)",also measured
1.820,"NCC1CCN(c2nccc(-c3ccc4ccccc4c3)n2)c2ccccc21 (stereo not drawn) [1-{1-[4-(2-naphthyl)pyrimidin-2-yl]-1,2,3,4-tetrahydroquinolin-4-yl}methanamine]",,,
,NCC1CCN(c2nccc(-c3ccc4cc(CN5CCCCC5)ccc4c3)n2)CC1 [1-(1-{4-[6-(piperidin-1-ylmethyl)-2-naphthyl]pyrimidin-2-yl}piperidin-4-yl)methanamine],1.4,,
,Cc1ccc(S(=O)(=O)N2CC(CNc3nccc(-c4ccc5ccccc5c4)n3)C2)cc1 [N-({1-[(4-methylphenyl)sulfonyl]azetidin-3-yl}methyl)-4-(2-naphthyl)pyrimidin-2-amine],1.45,1.2,
3.233,COc1ccc2cc(-c3ccnc(N4CCC(CN)CC4)n3)ccc2c1 [1-{1-[4-(6-methoxy-2-naphthyl)pyrimidin-2-yl]piperidin-4-yl}methanamine],2.27,,"EC50 (Homo sapiens, U2OS): 1.06 µM"
,O=C(N1CCCC1)N1CCC(CNc2nccc(-c3ccc4ccccc4c3)n2)CC1 [4-(2-naphthyl)-N-{[1-(pyrrolidin-1-ylcarbonyl)piperidin-4-yl]methyl}pyrimidin-2-amine],1.08,0.907,
,CN(c1nccc(-c2ccc3ccccc3c2)n1)[C@H]1CC[C@@H](CN)CC1 [N-[cis-4-(aminomethyl)cyclohexyl]-N-methyl-4-(2-naphthyl)pyrimidin-2-amine],2.7,,
1.360,c1ccc2cc(-c3ccnc(N[C@H]4CCNC4)n3)ccc2c1 [4-(2-naphthyl)-N-[(3S)-pyrrolidin-3-yl]pyrimidin-2-amine],2.84,0.89,
,OCC1CCCN([C@H]2CCN(c3nccc(-c4ccc5ccccc5c4)n3)C2)C1 (stereo partly drawn) [(1-{(3S)-1-[4-(2-naphthyl)pyrimidin-2-yl]pyrrolidin-3-yl}piperidin-3-yl)methanol],1.88,0.01,
5.120,OC1CCCN([C@@H]2CCN(c3nccc(-c4ccc5ccccc5c4)n3)C2)C1 (stereo partly drawn) [1-{(3R)-1-[4-(2-naphthyl)pyrimidin-2-yl]pyrrolidin-3-yl}piperidin-3-ol],2.06,1.05,"EC50 (Homo sapiens, U2OS): 3.64 µM"
,O=C(NCCC1CCN(c2nccc(-c3ccc4ccccc4c3)n2)CC1)Nc1ccccc1 [N-(2-{1-[4-(2-naphthyl)pyrimidin-2-yl]piperidin-4-yl}ethyl)-N′-phenylurea],1,1.5,
1.230,O=C(NC1CCCCC1)N1CCC(CNc2nccc(-c3ccc4ccccc4c3)n2)CC1 [N-cyclohexyl-4-({[4-(2-naphthyl)pyrimidin-2-yl]amino}methyl)piperidine-1-carboxamide],1.81,0.067,
,O=C(N1CC(CNc2nccc(-c3ccc4ccccc4c3)n2)C1)C(F)(F)F [4-(2-naphthyl)-N-{[1-(trifluoroacetyl)azetidin-3-yl]methyl}pyrimidin-2-amine],1.5,,
,Cc1ccc(S(=O)(=O)N2CC[C@H](Nc3nccc(-c4ccc5ccccc5c4)n3)C2)cc1 [N-{(3S)-1-[(4-methylphenyl)sulfonyl]pyrrolidin-3-yl}-4-(2-naphthyl)pyrimidin-2-amine],1.22,1.01,
,c1ccc(CNc2nccc(-c3ccc4ccccc4c3)n2)cc1 [N-benzyl-4-(2-naphthyl)pyrimidin-2-amine],1.71,,
,O=[N+]([O-])CC1CCN(c2nccc(-c3ccc4ccccc4c3)n2)CC1 [4-(2-naphthyl)-2-[4-(nitromethyl)piperidin-1-yl]pyrimidine],1.5,0.68,
1.600,CN1CCN(C(=O)[C@H]2CCCN2c2nccc(-c3ccc4ccccc4c3)n2)CC1 [2-{(2R)-2-[(4-methylpiperazin-1-yl)carbonyl]pyrrolidin-1-yl}-4-(2-naphthyl)pyrimidine],1.01,2.09,
,"CN(C)S(=O)(=O)N1CCC(CNc2nccc(-c3ccc4ccccc4c3)n2)CC1 [N,N-dimethyl-4-({[4-(2-naphthyl)pyrimidin-2-yl]amino}methyl)piperidine-1-sulfonamide]",,1.21,
,c1ccc2cc(-c3ccnc(N4CCC(CN5CCSCC5)C4)n3)ccc2c1 (stereo not drawn) [4-({1-[4-(2-naphthyl)pyrimidin-2-yl]pyrrolidin-3-yl}methyl)thiomorpholine],1.9,,
,O=C(NCCC1CCN(c2nccc(-c3ccc4ccccc4c3)n2)CC1)OCc1ccccc1 [benzyl (2-{1-[4-(2-naphthyl)pyrimidin-2-yl]piperidin-4-yl}ethyl)carbamate],0.86,1.49,
,O=C([C@H]1CCCN1c1nccc(-c2ccc3ccccc3c2)n1)N1CCCCC1 [4-(2-naphthyl)-2-[(2R)-2-(piperidin-1-ylcarbonyl)pyrrolidin-1-yl]pyrimidine],1.01,,

A = MAX FOLD Induction/DMSO CONTROL [fold],SMILES,"fold induction at 2 µM (Homo sapiens, U2OS)","fold induction at 20 µM (Homo sapiens, U2OS)",also measured
,Cc1ccc(S(=O)(=O)N2CC[C@@H](Nc3nccc(-c4ccc5ccccc5c4)n3)C2)cc1 [N-{(3R)-1-[(4-methylphenyl)sulfonyl]pyrrolidin-3-yl}-4-(2-naphthyl)pyrimidin-2-amine],,1.58,
2.760,"c1ccc2cc(-c3ccnc(N4CC[C@@H](N5CCCC5)C4)n3)ccc2c1 [(3′R)-1′-[4-(2-naphthyl)pyrimidin-2-yl]-1,3′-bipyrrolidine]",1.38,2.62,
2.990,c1ccc2cc(-c3ccnc(N4CCC(CN5CCOCC5)C4)n3)ccc2c1 (stereo not drawn) [4-({1-[4-(2-naphthyl)pyrimidin-2-yl]pyrrolidin-3-yl}methyl)morpholine],1.07,3.1,"EC50 (Homo sapiens, U2OS): 4.8 µM"
2.260,c1ccc2cc(-c3ccnc(N4CCC(CN5CCCCCC5)C4)n3)ccc2c1 (stereo not drawn) [1-({1-[4-(2-naphthyl)pyrimidin-2-yl]pyrrolidin-3-yl}methyl)azepane],2.33,,
1.730,CS(=O)(=O)N1CCC(Nc2nccc(-c3ccc4ccccc4c3)n2)CC1 [N-[1-(methylsulfonyl)piperidin-4-yl]-4-(2-naphthyl)pyrimidin-2-amine],2.24,1.54,"EC50 (Homo sapiens, U2OS): 0.06 µM"
,NCC1CCN(c2nccc(-c3ccc4cc(CN5CCOCC5)ccc4c3)n2)CC1 [1-(1-{4-[6-(morpholin-4-ylmethyl)-2-naphthyl]pyrimidin-2-yl}piperidin-4-yl)methanamine],1.1,,
1.460,CCNC(=O)N1CC[C@@H](Nc2nccc(-c3ccc4ccccc4c3)n2)C1 [(3R)—N-ethyl-3-{[4-(2-naphthyl)pyrimidin-2-yl]amino}pyrrolidine-1-carboxamide],,2.01,
,"CN(C)CCN[C@@H]1CCN(c2nccc(-c3ccc4ccccc4c3)n2)C1 [N,N-dimethyl-N′-{(3R)-1-[4-(2-naphthyl)pyrimidin-2-yl]pyrrolidin-3-yl}ethane-1,2-diamine]",2.5,,
,COc1ccc(CNc2nccc(-c3ccc4ccccc4c3)n2)cc1 [N-(4-methoxybenzyl)-4-(2-naphthyl)pyrimidin-2-amine],,1.12,
2.500,CCNC(=O)N1CC[C@H](Nc2nccc(-c3ccc4ccccc4c3)n2)C1 [(3S)—N-ethyl-3-{[4-(2-naphthyl)pyrimidin-2-yl]amino}pyrrolidine-1-carboxamide],2.49,2.81,
5.480,N[C@@H]1[C@H]2CN(c3nccc(-c4ccc5ccccc5c4)n3)C[C@@H]12,,,EC50: 4 µM; B = TCF ACTIVITY/DMSO CONTROL Fold induction @ 2.0 uM (2.0 uM compound): 1.920 fold
1.757,"CC(=O)N1CCCN(c2nccc(-c3ccc4ccccc4c3)n2)CC1 [1-acetyl-4-[4-(2-naphthyl)pyrimidin-2-yl]-1,4-diazepane]",1.46,3.21,"EC50 (Homo sapiens, U2OS): 7.3 µM"
,CCOC(=O)N[C@@H]1CCN(c2nccc(-c3ccc4ccccc4c3)n2)C1 [ethyl {(3R)-1-[4-(2-naphthyl)pyrimidin-2-yl]pyrrolidin-3-yl}carbamate],1.21,0.69,
2.690,CC(C)(C)N[C@H]1CCN(c2nccc(-c3ccc4ccccc4c3)n2)C1 [(3S)—N-(tert-butyl)-1-[4-(2-naphthyl)pyrimidin-2-yl]pyrrolidin-3-amine],2.39,,
,NS(=O)(=O)c1ccc(CNc2nccc(-c3ccc4ccccc4c3)n2)cc1 [4-({[4-(2-naphthyl)pyrimidin-2-yl]amino}methyl)benzenesulfonamide],1.3,1.06,
4.050,c1ccc2cc(-c3ccnc(N4CC[C@@H](CN5CCCC5)C4)n3)ccc2c1 [4-(2-naphthyl)-2-[(3S)-3-(pyrrolidin-1-ylmethyl)pyrrolidin-1-yl]pyrimidine],1.9,5.18,
,c1ccc2cc(-c3ccnc(N4CCN(CCCN5CCOCC5)CC4)n3)ccc2c1 [4-(3-{4-[4-(2-naphthyl)pyrimidin-2-yl]piperazin-1-yl}propyl)morpholine],1.29,0.01,
,CC(C)(C)OC(=O)NCC1CCN(c2nccc(-c3ccc4ccccc4c3)n2)C1 (stereo not drawn) [tert-butyl ({1-[4-(2-naphthyl)pyrimidin-2-yl]pyrrolidin-3-yl}methyl)carbamate],1.09,0.17,
,c1ccc2cc(-c3ccnc(N4CCCC4)n3)ccc2c1 [4-(2-naphthyl)-2-pyrrolidin-1-ylpyrimidine],1.97,,
